Assays:
[1] = test system: CRAB C1
Experimental: (§1) Antibacterial activity of PapMA-3 in combination with imipenem was measured against CRAB C1 in the presence of 50% human serum. The treated cells were incubated for 16 h at 37 °C, and the absorbance at 600 nm was measured using a SpectraMAX microplate reader (Molecular Devices).

[2] = test system: A. baumannii; conditions: 50% human serum in MH medium, 16 h, 37 °C; measure of serum stability
Experimental: as §1

[3] = test system: CRAB C2; assay: microbe, parasite or virus in culture; conditions: MH media, 2 × 10^5 CFU·mL^−1, 37 °C, 16 h, absorbance 600 nm
Excerpt: (§2) The Gram-negative bacterial strain Escherichia coli (KCTC 1682) and Gram-positive bacterial strain Staphylococcus aureus (KCTC 1621) were purchased from the Korean Collection for Type Cultures (Jeongeup, Korea). Acinetobacter baumannii (KCCM 40203) were purchased from Korea Culture Center of Microorganisms (Seoul, Korea). Additionally, five carbapenem-resistant Acinetobacter baumanii C1–C5 (CRAB C1–C5), which have the OXA-23 gene with carbapenem-resistance were collected from the patients with CRAB bacteremia, who presented symptoms and signs of infection at Korea University Anam Hospital (Seoul, Korea) (IRB registration no. 2020AN0157). The minimum inhibitory concentrations (MIC) of the AMP and antibiotics against the various bacterial strains were assessed using the serial dilution method on Muller–Hinton (MH) media, as described previously. […] Absorbance at 600 nm was measured using a SpectraMAX microplate reader (Molecular Devices, San Jose, CA, USA).
(§3) Measurement of the minimum inhibitory concentrations (MIC) was conducted to determine the effect of the hydrophobicity of each antimicrobial peptide on its antimicrobial activity. MIC was defined as the minimum concentration that killed more than 99% of bacteria; it was measured against two standard Gram-negative bacteria (E. coli and A. baumanii), five clinically isolated CRAB (C1–C5), and one Gram-positive bacteria (S. aureus).

[4] = test system: CRAB C4; assay: microbe, parasite or virus in culture; conditions: MH media, 2 × 10^5 CFU·mL^−1, 37 °C, 16 h, absorbance 600 nm
Excerpt: as §2, §3

[5] = test system: CRAB C1; assay: microbe, parasite or virus in culture; conditions: 16 h
Excerpt: as §2, §3

[6] = test system: CRAB C3; assay: microbe, parasite or virus in culture; conditions: MH media, 2 × 10^5 CFU·mL^−1, 37 °C, 16 h, absorbance 600 nm
Excerpt: as §2, §3

[7] = test system: Acinetobacter baumannii (KCCM 40203); assay: microbe, parasite or virus in culture; conditions: 16 h
Excerpt: as §2, §3

[8] = test system: CRAB C5; assay: microbe, parasite or virus in culture; conditions: MH media, 2 × 10^5 CFU·mL^−1, 37 °C, 16 h, absorbance 600 nm
Excerpt: as §2, §3

[9] = test system: intact CRAB C1; assay: Membrane depolarization, diSC3-5, intact cells; format: cell-based, carbapenem-resistant Acinetobacter baumannii; conditions: peptide 4 μg·mL^−1, 100% = 1% triton X-100
Experimental: The membrane depolarization activity of each AMPs at varying concentrations (1–16 μg·mL^−^1) against CRAB C1 intact cells were measured using 3,3′-dipropylthiadicarbocyanine iodide (diSC3-5). CRAB C1 was washed two times in washing buffer (5 mM HEPES, 20 mM glucose, pH 7.4), the experiment buffer was changed (5 mM HEPES, 20 mM glucose, 0.1 M KCl, pH 7.4), and diSC3-5 dye was added. As a control, 100% depolarization was obtained by treating CRAB C1 with 1% triton X-100 [33]. Spheroplast cells were prepared by the osmotic shock, as previously described. […] The corresponding fluorescent were measured using RF-6000PC fluorescent spectrophotometer (Shimadzu Scientific Instruments, Kyoto, Japan).
Figure 3 CRAB C1 membrane destruction caused by PapMA analogs. The concentration dependent depolarization of (A) intact CRAB C1 and its (B) spheroplast induced by PapMA and its analogs, determined using the membrane potential-sensitive fluorescent dye diSC3-5. Dye release was monitored by measuring fluorescence, at an excitation wavelength of 654 nm and an emission wavelength of 670 nm.

[10] = test system: HaCaT cells; assay: Cytotoxicity, WST-8 Cell Proliferation Assay; format: cell-based, human; conditions: at its MIC, 24 h and 48 h
Experimental: (§4) Human embryonic kidney (HEK)-293 cells, purchased from Korean cell line bank (Seoul, Korea) were cultured in Dulbecco’s modified Eagle’s medium (DMEM) (Welgene, Gyeong-san, Korea) with 10% fetal bovine serum, 1% penicillin-streptomycin at 37 °C in a humidified 5% CO2 incubator as described previously. The cytotoxicity of the six PapMA peptides and melittin was determined using WST-8 Cell Proliferation Assay Kit (Biomax Co, Ltd., Seoul, Korea), according to the manufacturer’s instructions. […] The absorbance was measured at 450 nm using a SpectraMAX microplate reader (Molecular Devices).
Figure 10 Cytotoxicity of PapMA-3 (A) Cytotoxicity of PapMA-3 against HEK-293 cells at 24 h and 48 h. (B) Cytotoxicity of PapMA-3 against HaCaT cell at 24 h and 48 h. Statistical analysis was performed using two-way ANOVA with Dunnett’s comparison test. The values are expressed as the mean ± SEM of three independent experiments and are statistically significant at * p < 0.05; *** p < 0.001; ns, not significant.

[11] = test system: Gram-negative bacterial strains; assay: organism not typed
Excerpt: as §2
Geometric means (GM) were calculated to compare the relative antimicrobial activities of the analogs against Gram-negative bacteria. […] Next, the antibacterial mechanisms of peptides were investigated.

[12] = test system: HEK-293 cells; assay: Cytotoxicity, WST-8 Cell Proliferation Assay; format: cell-based, human; conditions: at its MIC, 24 h and 48 h
Experimental: as §4
Figure 4 Cytotoxicity of PapMA analogs. (A) Cytotoxicity of PapMA and its analogs against HEK-293 cell. […] (B) Hemolysis activity of PapMA analogs against sRBC. The peptide was serially diluted and incubated with sRBC for 1 h with melittin as a control. Statistical analysis was performed using two-way ANOVA with Dunnett’s comparison test. The values are expressed as the mean ± SEM of three independent experiments and are statistically significant at ** p < 0.01; and *** p < 0.001. ns, not significant.

[13] = MH media, 2 × 10^5 CFU·mL^−1, 37 °C, absorbance 600 nm

## CC[C@H](C)[C@H](NC(=O)CN)C(=O)NCC(=O)N[C@@H](C)C(=O)N[C@H](C(=O)N[C@@H](CC(C)C)C(=O)N[C@@H](CCCCN)C(=O)N[C@H](C(=O)N[C@@H](CC(C)C)C(=O)N[C@H](C(=O)N[C@H](C(=O)NCC(=O)N[C@@H](CC(C)C)C(=O)N1CCC[C@H]1C(=O)N[C@@H](C)C(=O)N[C@@H](CC(C)C)C(=O)N[C@H](C(=O)N[C@@H](CO)C(=O)N[C@@H](Cc1c[nH]c2ccccc12)C(=O)N[C@H](C(=O)N[C@@H](CCCCN)C(=O)N[C@@H](CCCNC(=N)N)C(=O)N[C@@H](CCCCN)C(=O)N[C@@H](CCCNC(=N)N)C(=O)N[C@@H](CCC(N)=O)C(=O)N[C@@H](CCC(N)=O)C(N)=O)[C@@H](C)CC)[C@@H](C)CC)[C@@H](C)O)[C@@H](C)O)C(C)C)C(C)C [melittin]
[1]; 50% human serum in MH media versus MH media, E. coli, A. baumannii, CRAB C1
  change of antibacterial activity in the presence of 50% human serum: lost antibacterial activity considerably
[1]; 50% human serum in MH medium, 16 h, 37 °C, measure of serum stability
  Minimum Inhibitory Concentration, CRAB C1, + Serum (50%): 256 µg/mL
[2]
  Minimum Inhibitory Concentration, A. baumannii, + Serum (50%): 128 µg/mL
[3]
  Minimum Inhibitory Concentration, CRAB C2: 16 µg/mL
[4]
  Minimum Inhibitory Concentration, CRAB C4: 8 µg/mL
[5]; MH media without serum, 37 °C
  Minimum Inhibitory Concentration, CRAB C1, MH Media: 16 µg/mL
[5]; [13]
  Minimum Inhibitory Concentration, CRAB C1: 16 µg/mL
[6]
  Minimum Inhibitory Concentration, CRAB C3: 16 µg/mL
[7]; MH media without serum, 37 °C
  Minimum Inhibitory Concentration, A. baumannii, MH Media: 16 µg/mL
[7]; [13]
  Minimum Inhibitory Concentration, A. baumanii: 16 µg/mL
[8]
  Minimum Inhibitory Concentration, CRAB C5: 16 µg/mL
[9]
  depolarization of intact CRAB C1: 86.4%
[10]
  toxicity, HaCaT: severe toxicity
[11]
  GM (mean MIC of Gram-negative bacterial strains): 14 µg/mL
[12]
  toxicity, HEK-293: severe toxicity
